# Test results taken from patent publication US11912699B2, “Tau-protein targeting compounds and associated” (Arvinas Operations, Inc., priority 2019, dated 2024).
# Structures can show the parent of a compound that is named as a salt.
# Biological target: T1, Tau P301L (Homo sapiens, UniProt P10636, P618L)
# T1 construct: expressed in transfected cells
# Assay: In vitro tau degradation assay in CHOK1 Tau P301L cells (sarkosyl insoluble tau, WES)
# Format: cell-based
# Settings: CHO-K1; CHOK1 Tau P301L cells; remaining tau in sarkosyl insoluble pellet; 48 hours with test compound at 1 μM, doxycycline removed for last 24 hours; relative to DMSO doxycycline control; read-out: Tau Protein Degradation effect at 1 μM
# Procedure, shortened: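 T-Rex CHOK1 clone D1 with doxycycline-inducible (1 μg/ml) Tau P301L treated 48 h with compound at 1 μM, doxycycline removed for the final 24 h. Sarkosyl-insoluble tau quantified by WES capillary electrophoresis with Tau1 antibody, expressed relative to DMSO doxycycline control and binned as ≤50% or >50% remaining.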
# T1 sequence (P10636 1-441 isoform P10636-8 P301L): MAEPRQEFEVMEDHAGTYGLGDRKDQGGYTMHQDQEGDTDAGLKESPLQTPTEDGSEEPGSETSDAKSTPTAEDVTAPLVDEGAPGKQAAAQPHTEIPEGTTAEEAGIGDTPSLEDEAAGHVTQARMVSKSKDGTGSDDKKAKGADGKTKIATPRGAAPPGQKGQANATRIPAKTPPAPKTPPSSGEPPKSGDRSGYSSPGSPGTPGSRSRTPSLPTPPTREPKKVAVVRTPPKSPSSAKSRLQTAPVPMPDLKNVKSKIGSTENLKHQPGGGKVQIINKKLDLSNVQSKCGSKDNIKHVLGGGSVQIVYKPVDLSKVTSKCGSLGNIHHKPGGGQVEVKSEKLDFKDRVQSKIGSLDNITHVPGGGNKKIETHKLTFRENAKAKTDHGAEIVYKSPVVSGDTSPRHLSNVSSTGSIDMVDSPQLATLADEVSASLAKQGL
row,remaining activity at 1 µM,SMILES
1,< 50%,"O=C1CCC(N2C(=O)c3cc(F)c(N4CCCN(CCC5CCN(c6ncc(-c7ccc8c9cnccc9n(C(F)F)c8c7)cc6F)CC5)CC4)cc3C2=O)C(=O)N1 (centres unmarked) [Compound 639, 5-(4-(2-(1-(5-(5-(difluoromethyl)-5H-pyrido[4,3-b]indol-7-yl)-3-fluoropyridin-2-yl)piperidin-4-yl)ethyl)-1,4-diazepan-1-yl)-2-(2,6-dioxopiperidin-3-yl)-6-fluoroisoindoline-1,3-dione]"
2,> 50%,"O=C1CCC(N2C(=O)c3ccc(N4CCN(CC5CC6(CCN(c7ncc(-c8ccc9c%10cnccc%10n(C(F)F)c9c8)cc7F)CC6)C5)CC4)cc3C2=O)C(=O)N1 (centres unmarked) [Compound 614, 5-(4-((7-(5-(5-(difluoromethyl)-5H-pyrido[4,3-b]indol-7-yl)-3-fluoropyridin-2-yl)-7-azaspiro[3.5]nonan-2-yl)methyl)piperazin-1-yl)-2-(2,6-dioxopiperidin-3-yl)isindoline-1,3-dione]"
3,> 50%,"CN1CCc2[nH]c3cc(-c4cnc(N5CCC(CCN6CCN(c7cc8c(cc7F)C(=O)N(C7CCC(=O)NC7=O)C8=O)CC6)CC5)c(F)c4)ccc3c2C1 (centres unmarked) [Compound 647, 2-(2,6-dioxopiperidin-3-yl)-5-fluoro-6-(4-(2-(1-(3-fluoro-5-(2-methyl-2,3,4,5-tetrahydro-1H-pyrido[4,3-b]indol-7-yl)pyridin-2-yl)piperidin-4-yl)ethyl)piperazin-1-yl)isoindoline-1,3-dione]"
4,< 50%,"O=C1CCC(N2Cc3c(cccc3N3CCN(CCC4CCN(c5ncc(-c6ccc7c8cnccc8n(C(F)F)c7c6)cc5F)CC4)CC3)C2=O)C(=O)N1 (centres unmarked) [Compound 682, 3-(4-(4-(2-(1-(5-(5-(difluoromethyl)-5H-pyrido[4,3-b]indol-7-yl)-3-fluoropyridin-2-yl)piperidin-4-yl)ethyl)piperazin-1-yl)-1-oxoisoindolin-2-yl)piperidine-2,6-dione]"
5,< 50%,"O=C1CCC(N2C(=O)c3cc(F)c(N4CCC(CN5CC6(C5)CN(C[C@H]5C[C@H](Oc7ccc(-c8ccc9c%10cnccc%10n(C(F)F)c9c8)cn7)C5)C6)CC4)cc3C2=O)C(=O)N1 (some centres unmarked) [Compound 640, 5-(4-((6-(((1r,3r)-3-((5-(5-(difluoromethyl)-5H-pyrido[4,3-b]indol-7-yl)pyridin-2-yl)oxy)cyclobutyl)methyl)-2,6-diazaspiro[3.3]heptan-2-yl)methyl)piperidin-1-yl)-2-(2,6-dioxopiperidin-3-yl)-6-fluoroisoindoline-1,3-dione]"
6,< 50%,"O=C1CCC(N2C(=O)c3cc(F)c(OCCN4CC5(C4)CN(C[C@H]4C[C@H](Oc6ncc(-c7ccc8c9cnccc9n(C(F)F)c8c7)cc6F)C4)C5)cc3C2=O)C(=O)N1 (some centres unmarked) [Compound 646, 5-(2-(6-(((1r,3r)-3-((5-(5-(difluoromethyl)-5H-pyrido[4,3-b]indol-7-yl)-3-fluoropyridin-2-yl)oxy)cyclobutyl)methyl)-2,6-diazaspiro[3.3]heptan-2-yl)ethoxy)-2-(2,6-dioxopiperidin-3-yl)-6-fluoroisoindoline-1,3-dione]"

# Same assay, conditions: CHO-K1; remaining tau protein in sarkosyl insoluble pellet; CHOK1 Tau P301L cells treated 48 hours with test compound at 1 μM, doxycycline removed for the last 24 hours; relative to DMSO doxycycline control; read-out: Tau Protein Degradation effect at 1 μM
row,remaining activity at 1 µM,SMILES
1,< 50%,"O=C1CCC(N2C(=O)c3ccc(N4CCN(CCC5CCN(CCCn6c7ccccc7c7cnccc76)CC5)CC4)cc3C2=O)C(=O)N1 (centres unmarked) [Compound 527, 5-(4-(2-(1-(3-(5H-pyrido[4,3-b]indol-5-yl)propyl)piperidin-4-yl)ethyl)piperazin-1-yl)-2-(2,6-dioxopiperidin-3-yl)isoindoline-1,3-dione]"
2,< 50%,"Cc1ccc(-n2ccc3cc(N4CCC(CCN5CCN(c6ccc7c(c6)C(=O)N(C6CCC(=O)NC6=O)C7=O)CC5)CC4)ncc32)nc1 (centres unmarked) [Compound 555, 2-(2,6-dioxopiperidin-3-yl)-5-(4-(2-(1-(1-(5-methylpyridin-2-yl)-1H-pyrrolo[2,3-c]pyridin-5-yl)piperidin-4-yl)ethyl)piperazin-1-yl)isoindoline-1,3-dione]"
3,> 50%,"Cn1c2ccncc2c2ccc(-c3ccc(N4CCC(CN5CCN(c6ccc7c(c6)C(=O)N(C6CCC(=O)NC6=O)C7=O)CC5)CC4)nc3)cc21 (centres unmarked) [Compound 390, 2-(2,6-dioxopiperidin-3-yl)-5-(4-[[1-(5-[5-methyl-5H-pyrido[4,3-b]indol-7-yl]pyridin-2-yl)piperidin-4-yl]methyl]piperazin-1-yl)-2,3-dihydro-1H-isoindole-1,3-dione]"
4,< 50%,"CN(C)c1cccc2cnc(-n3ccc4cc(N5CCC(CCN6CCN(c7ccc8c(c7)C(=O)N(C7CCC(=O)NC7=O)C8=O)CC6)CC5)ncc43)cc12 (centres unmarked) [Compound 512, 5-(4-(2-(1-(1-(5-(dimethylamino)iso-quinolin-3-yl)-1H-pyrrolo[2,3-c]pyridin-5-yl)piperidin-4-yl)ethyl)piperazin-1-yl)-2-(2,6-dioxopiperidin-3-yl)isoindoline-1,3-dione]"
5,> 50%,"Cc1ncsc1-c1ccc([C@H](C)NC(=O)[C@@H]2C[C@@H](O)CN2C(=O)[C@@H](NC(=O)COCCOCCOCCOCCOCCOc2cc3ccn(-c4cc5c(N)cccc5cn4)c3cn2)C(C)(C)C)cc1 [Compound 351, (2S,4R)-1-((S)-20-((1-(5-aminoisoquinolin-3-yl)-1H-pyrrolo[2,3-c]pyridin-5-yl)oxy)-2-(tert-butyl)-4-oxo-6,9,12,15,18-pentaoxa-3-azaicosanoyl)-4-hydroxy-N-((S)-1-(4-(4-methylthiazol-5-yl)phenyl)ethyl) pyrrolidine-2-carboxamide]"
6,< 50%,"O=C1CCC(N2C(=O)c3ccc(N4CCN(CC#CC5CCN(c6ccc7c8cnccc8n(C(F)F)c7c6)CC5)CC4)cc3C2=O)C(=O)N1 (centres unmarked) [Compound 565, formate]"
7,< 50%,"O=C1CCC(N2C(=O)c3ccc(N4CCN(CCC5CCN(c6ccc(-c7c(F)cc8c9cnccc9n(C(F)F)c8c7F)cn6)CC5)CC4)cc3C2=O)C(=O)N1 (centres unmarked) [Compound 679, 5-(4-(2-(1-(5-(5-(difluoromethyl)-6,8-difluoro-5H-pyrido[4,3-b]indol-7-yl)pyridin-2-yl)piperidin-4-yl)ethyl)piperazin-1-yl)-2-(2,6-dioxopiperidin-3-yl)isoindoline-1,3-dione]"
8,< 50%,"O=C1CCC(N2C(=O)c3ccc(OCCN4CC5(C4)CN(C[C@H]4C[C@H](Oc6ccc(-c7ccn8c(n7)nc7ccccc78)cn6)C4)C5)cc3C2=O)C(=O)N1 (some centres unmarked) [Compound 473, 5-(2-(6-(((1r,3r)-3-((5-(benzo[4,5]imidazo[1,2-a]pyrimidin-2-yl)pyridin-2-yl)oxy)cyclobutyl)methyl)-2,6-diazaspiro[3.3]heptan-2-yl)ethoxy)-2-(2,6-dioxopiperidin-3-yl)isoindoline-1,3-dione]"
9,> 50%,"O=C1CCC(N2C(=O)c3ccc(OCCN4CCC(OC5CN(c6ncc(-c7ccn8c(n7)nc7ccccc78)cc6C(F)(F)F)C5)CC4)cc3C2=O)C(=O)N1 (centres unmarked) [Compound 483, 5-(2-(4-((1-(5-(benzo[4,5]imidazo[1,2-a]pyrimidin-2-yl)-3-(trifluoromethyl)pyridin-2-yl)azetidin-3-yl)oxy)piperidin-1-yl)ethoxy)-2-(2,6-dioxopiperidin-3-yl)isoindoline-1,3-dione]"
10,< 50%,"Cn1c2ccncc2c2ccc(-c3ccc(O[C@H]4C[C@H](CN5CCC(CC6CCN(c7ccc8c(c7)C(=O)N(C7CCC(=O)NC7=O)C8=O)CC6)CC5)C4)nc3)cc21 (some centres unmarked) [Compound 485, 2-(2,6-dioxopiperidin-3-yl)-5-(4-((1-(((1r,3r)-3-((5-(5-methyl-5H-pyrido[4,3-b]indol-7-yl)pyridin-2-yl)oxy)cyclobutyl)methyl)piperidin-4-yl)methyl)piperidin-1-yl)isoindoline-1,3-dione]"

row,SMILES,remaining activity at 1 µM
1,"Cc1ncsc1-c1ccc([C@H](C)NC(=O)[C@@H]2C[C@@H](O)CN2C(=O)[C@@H](c2cc(OCCCCCN3CCC(O[C@H]4C[C@H](Oc5ccc(-c6ccc7c8cnccc8n(C)c7c6)cn5)C4)CC3)no2)C(C)C)cc1 [Compound 379, (2S,4R)-4-hydroxy-1-((R)-3-methyl-2-(3-((5-(4-((1r,3r)-3-((5-(5-methyl-5H-pyrido[4,3-b]indol-7-yl)pyridin-2-yl)oxy)cyclobutoxy)piperidin-1-yl)pentyl)oxy)isoxazol-5-yl)butanoyl)-N-((S)-1-(4-(4-methylthiazol-5-yl)phenyl)ethyl) pyrrolidine-2-carboxamide]",> 50%
2,"Cc1ncsc1-c1ccc([C@H](C)NC(=O)[C@@H]2C[C@@H](O)CN2C(=O)[C@@H](c2cc(OCCN3CCC(O[C@H]4C[C@H](Oc5ccc(-c6ccc7c8cnccc8n(C)c7c6)cn5)C4)CC3)no2)C(C)C)cc1 [Compound 398, (2S,4R)-4-hydroxy-1-((R)-3-methyl-2-(3-(2-(4-((1r,3R)-3-((5-(5-methyl-5H-pyrido[4,3-b]indol-7-yl)pyridin-2-yl)oxy)cyclobutoxy)piperidin-1-yl)ethoxy)isoxazol-5-yl)butanoyl)-N-((S)-1-(4-(4-methylthiazol-5-yl)phenyl)ethyl) pyrrolidine-2-carboxamide]",< 50%
3,"Cn1c2ccncc2c2ccc(-c3ccc(O[C@H]4C[C@H](Oc5ccc(C#CCNCCCc6ccc7c(c6)CN(C6CCC(=O)NC6=O)C7=O)nc5)C4)nc3)cc21 (some centres unmarked) [Compound 346, 3-(5-(3-((3-(5-((1r,3r)-3-((5-(5-methyl-5H-pyrido[4,3-b]indol-7-yl)pyridin-2-yl)oxy)cyclobutoxy)pyridin-2-yl)prop-2-yn-1-yl)amino)propyl) 1-oxoisoindolin-2-yl)piperidine-2,6-dione]",> 50%
4,"Cn1c2ccncc2c2ccc(C3CCN([C@H]4C[C@@H](OC5CCN(CCOc6ccc7c(c6)C(=O)N(C6CCC(=O)NC6=O)C7=O)CC5)C4)CC3)cc21 (some centres unmarked) [Compound 515, 2-(2,6-dioxopiperidin-3-yl)-5-(2-(4-((1s,3s)-3-(4-(5-methyl-5H-pyrido[4,3-b]indol-7-yl)piperidin-1-yl)cyclobutoxy)piperidin-1-yl)ethoxy) isoindoline-1,3-dione]",< 50%
